For 15 compounds, IC50 and MIC results are on record in patent publication US20190330224A1, “ACC INHIBITORS AND USES THEREOF” (Gilead Apollo, LLC, priority 2015, published 2019).

≈ marks a conversion by molar mass, not a printed value.

In assay [1] the target is Human ACC2 (Homo sapiens, UniProt O00763). The assay can be described thus: In vitro ACC2 inhibition assay (ADP-Glo), human ACC2. Format: biochemical. The note with it: 5 nM ACC2, 20 μM ATP, 20 μM acetyl-CoA.
In assay [2] the test system is C. albicans ATCC 90028. The assay can be described thus: Anti-Fungal Activity Assay (broth microtiter MIC), C. albicans. Format: cell-based, Candida albicans. Conditions: Candida albicans, ATCC90028, 48 h, 3 replicates; MIC recorded at 48 h; read-out: MIC C. albicans ATCC 90028. The method in brief:
(§1)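 Plate from frozen stock onto Sabouraud dextrose agar, 35° C overnight; swab colonies into RPMI 1640+MOPS; set density via standard curves; run CLSI M27-A3 broth microdilution; score MIC visually versus growth control at 48 h, soraphen additionally at 24 h.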

Assay [3] has as its system C. krusei ATCC 6258. The assay can be described thus: Anti-Fungal Activity Assay (broth microtiter MIC), C. krusei. Format: cell-based, Candida krusei. The note with it: Pichia kudriavzevii, ATCC6258, 48 h, 3 replicates; MIC recorded at 48 h; read-out: MIC C. krusei ATCC 6258. The procedure, abridged:
as §1

The subject of assay [4] is C. parapsilosis ATCC 22019. Nature of the assay: Anti-Fungal Activity Assay (broth microtiter MIC), C. parapsilosis. Conditions: Lodderomyces parapsilosis, ATCC22019, 48 h, 3 replicates; MIC recorded at 48 h; read-out: MIC C. parapsilosis ATCC 22019. Format: cell-based, Candida parapsilosis. The procedure, abridged:
as §1

Assay [5] concerns the target Fungal ACC2 (UniProt Q00955). The note with it: read-out: Fungal ACC2 (IC50, in vitro ACC2 inhibition).

Human ACC2, sequence (O00763 whole entry): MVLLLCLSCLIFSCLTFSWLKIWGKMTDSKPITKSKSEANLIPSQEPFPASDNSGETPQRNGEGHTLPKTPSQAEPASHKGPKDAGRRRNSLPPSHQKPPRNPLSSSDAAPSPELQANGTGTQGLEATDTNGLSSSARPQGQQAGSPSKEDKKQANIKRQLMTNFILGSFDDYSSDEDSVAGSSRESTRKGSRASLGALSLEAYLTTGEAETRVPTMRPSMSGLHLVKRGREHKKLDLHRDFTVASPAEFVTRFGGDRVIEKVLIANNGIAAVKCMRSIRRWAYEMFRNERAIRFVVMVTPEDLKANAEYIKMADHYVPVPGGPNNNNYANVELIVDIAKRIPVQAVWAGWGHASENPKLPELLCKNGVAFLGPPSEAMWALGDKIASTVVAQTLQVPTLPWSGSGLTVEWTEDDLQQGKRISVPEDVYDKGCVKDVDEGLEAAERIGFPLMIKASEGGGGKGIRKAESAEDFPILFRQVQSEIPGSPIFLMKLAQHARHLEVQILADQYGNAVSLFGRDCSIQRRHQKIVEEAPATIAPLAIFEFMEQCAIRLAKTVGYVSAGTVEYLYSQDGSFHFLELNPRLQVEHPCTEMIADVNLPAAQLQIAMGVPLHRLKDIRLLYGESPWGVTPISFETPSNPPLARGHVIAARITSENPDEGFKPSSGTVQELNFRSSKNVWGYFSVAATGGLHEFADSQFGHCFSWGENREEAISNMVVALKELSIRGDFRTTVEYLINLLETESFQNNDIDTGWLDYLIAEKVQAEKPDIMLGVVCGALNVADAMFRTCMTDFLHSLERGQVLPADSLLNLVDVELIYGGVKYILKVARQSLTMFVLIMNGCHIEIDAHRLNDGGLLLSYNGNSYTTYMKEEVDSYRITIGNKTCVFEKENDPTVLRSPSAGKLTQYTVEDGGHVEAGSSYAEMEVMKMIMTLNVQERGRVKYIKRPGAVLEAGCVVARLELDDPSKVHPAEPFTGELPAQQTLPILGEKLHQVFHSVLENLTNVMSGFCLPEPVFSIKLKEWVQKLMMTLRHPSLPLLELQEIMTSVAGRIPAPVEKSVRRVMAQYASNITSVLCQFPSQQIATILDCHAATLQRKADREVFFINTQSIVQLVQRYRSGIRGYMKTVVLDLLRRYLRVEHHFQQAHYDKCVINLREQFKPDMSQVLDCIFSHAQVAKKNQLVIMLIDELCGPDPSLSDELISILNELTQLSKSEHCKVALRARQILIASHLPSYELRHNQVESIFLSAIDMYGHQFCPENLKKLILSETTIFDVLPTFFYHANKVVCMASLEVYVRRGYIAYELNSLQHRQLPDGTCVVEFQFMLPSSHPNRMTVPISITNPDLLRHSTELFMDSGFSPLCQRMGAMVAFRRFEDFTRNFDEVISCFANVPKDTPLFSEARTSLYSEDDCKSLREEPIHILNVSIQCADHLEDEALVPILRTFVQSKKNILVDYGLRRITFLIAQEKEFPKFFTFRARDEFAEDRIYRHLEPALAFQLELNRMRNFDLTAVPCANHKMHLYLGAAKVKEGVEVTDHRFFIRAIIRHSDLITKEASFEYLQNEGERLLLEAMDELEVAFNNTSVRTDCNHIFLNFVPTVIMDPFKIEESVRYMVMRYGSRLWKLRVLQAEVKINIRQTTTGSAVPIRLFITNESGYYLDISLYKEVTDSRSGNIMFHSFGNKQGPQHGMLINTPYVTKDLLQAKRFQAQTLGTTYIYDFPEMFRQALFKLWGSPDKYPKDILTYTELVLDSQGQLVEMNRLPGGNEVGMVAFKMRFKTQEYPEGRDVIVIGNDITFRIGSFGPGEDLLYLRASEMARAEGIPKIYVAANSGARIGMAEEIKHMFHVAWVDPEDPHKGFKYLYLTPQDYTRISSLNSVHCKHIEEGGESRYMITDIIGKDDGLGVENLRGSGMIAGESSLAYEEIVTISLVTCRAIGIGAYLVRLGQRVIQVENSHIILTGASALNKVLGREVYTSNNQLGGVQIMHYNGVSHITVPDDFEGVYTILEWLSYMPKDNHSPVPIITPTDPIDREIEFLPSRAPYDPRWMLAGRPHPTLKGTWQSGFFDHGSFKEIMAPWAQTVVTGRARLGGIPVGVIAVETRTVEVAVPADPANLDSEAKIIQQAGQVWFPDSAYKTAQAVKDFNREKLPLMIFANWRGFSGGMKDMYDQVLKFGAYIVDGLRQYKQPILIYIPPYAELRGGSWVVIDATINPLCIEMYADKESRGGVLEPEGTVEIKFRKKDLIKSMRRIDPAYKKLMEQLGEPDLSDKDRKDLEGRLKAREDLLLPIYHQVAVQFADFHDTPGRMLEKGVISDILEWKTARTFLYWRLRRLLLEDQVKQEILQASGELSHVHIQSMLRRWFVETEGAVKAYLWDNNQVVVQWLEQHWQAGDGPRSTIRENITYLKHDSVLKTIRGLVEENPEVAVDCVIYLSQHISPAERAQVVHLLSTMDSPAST
Fungal ACC2, sequence (Q00955 whole entry): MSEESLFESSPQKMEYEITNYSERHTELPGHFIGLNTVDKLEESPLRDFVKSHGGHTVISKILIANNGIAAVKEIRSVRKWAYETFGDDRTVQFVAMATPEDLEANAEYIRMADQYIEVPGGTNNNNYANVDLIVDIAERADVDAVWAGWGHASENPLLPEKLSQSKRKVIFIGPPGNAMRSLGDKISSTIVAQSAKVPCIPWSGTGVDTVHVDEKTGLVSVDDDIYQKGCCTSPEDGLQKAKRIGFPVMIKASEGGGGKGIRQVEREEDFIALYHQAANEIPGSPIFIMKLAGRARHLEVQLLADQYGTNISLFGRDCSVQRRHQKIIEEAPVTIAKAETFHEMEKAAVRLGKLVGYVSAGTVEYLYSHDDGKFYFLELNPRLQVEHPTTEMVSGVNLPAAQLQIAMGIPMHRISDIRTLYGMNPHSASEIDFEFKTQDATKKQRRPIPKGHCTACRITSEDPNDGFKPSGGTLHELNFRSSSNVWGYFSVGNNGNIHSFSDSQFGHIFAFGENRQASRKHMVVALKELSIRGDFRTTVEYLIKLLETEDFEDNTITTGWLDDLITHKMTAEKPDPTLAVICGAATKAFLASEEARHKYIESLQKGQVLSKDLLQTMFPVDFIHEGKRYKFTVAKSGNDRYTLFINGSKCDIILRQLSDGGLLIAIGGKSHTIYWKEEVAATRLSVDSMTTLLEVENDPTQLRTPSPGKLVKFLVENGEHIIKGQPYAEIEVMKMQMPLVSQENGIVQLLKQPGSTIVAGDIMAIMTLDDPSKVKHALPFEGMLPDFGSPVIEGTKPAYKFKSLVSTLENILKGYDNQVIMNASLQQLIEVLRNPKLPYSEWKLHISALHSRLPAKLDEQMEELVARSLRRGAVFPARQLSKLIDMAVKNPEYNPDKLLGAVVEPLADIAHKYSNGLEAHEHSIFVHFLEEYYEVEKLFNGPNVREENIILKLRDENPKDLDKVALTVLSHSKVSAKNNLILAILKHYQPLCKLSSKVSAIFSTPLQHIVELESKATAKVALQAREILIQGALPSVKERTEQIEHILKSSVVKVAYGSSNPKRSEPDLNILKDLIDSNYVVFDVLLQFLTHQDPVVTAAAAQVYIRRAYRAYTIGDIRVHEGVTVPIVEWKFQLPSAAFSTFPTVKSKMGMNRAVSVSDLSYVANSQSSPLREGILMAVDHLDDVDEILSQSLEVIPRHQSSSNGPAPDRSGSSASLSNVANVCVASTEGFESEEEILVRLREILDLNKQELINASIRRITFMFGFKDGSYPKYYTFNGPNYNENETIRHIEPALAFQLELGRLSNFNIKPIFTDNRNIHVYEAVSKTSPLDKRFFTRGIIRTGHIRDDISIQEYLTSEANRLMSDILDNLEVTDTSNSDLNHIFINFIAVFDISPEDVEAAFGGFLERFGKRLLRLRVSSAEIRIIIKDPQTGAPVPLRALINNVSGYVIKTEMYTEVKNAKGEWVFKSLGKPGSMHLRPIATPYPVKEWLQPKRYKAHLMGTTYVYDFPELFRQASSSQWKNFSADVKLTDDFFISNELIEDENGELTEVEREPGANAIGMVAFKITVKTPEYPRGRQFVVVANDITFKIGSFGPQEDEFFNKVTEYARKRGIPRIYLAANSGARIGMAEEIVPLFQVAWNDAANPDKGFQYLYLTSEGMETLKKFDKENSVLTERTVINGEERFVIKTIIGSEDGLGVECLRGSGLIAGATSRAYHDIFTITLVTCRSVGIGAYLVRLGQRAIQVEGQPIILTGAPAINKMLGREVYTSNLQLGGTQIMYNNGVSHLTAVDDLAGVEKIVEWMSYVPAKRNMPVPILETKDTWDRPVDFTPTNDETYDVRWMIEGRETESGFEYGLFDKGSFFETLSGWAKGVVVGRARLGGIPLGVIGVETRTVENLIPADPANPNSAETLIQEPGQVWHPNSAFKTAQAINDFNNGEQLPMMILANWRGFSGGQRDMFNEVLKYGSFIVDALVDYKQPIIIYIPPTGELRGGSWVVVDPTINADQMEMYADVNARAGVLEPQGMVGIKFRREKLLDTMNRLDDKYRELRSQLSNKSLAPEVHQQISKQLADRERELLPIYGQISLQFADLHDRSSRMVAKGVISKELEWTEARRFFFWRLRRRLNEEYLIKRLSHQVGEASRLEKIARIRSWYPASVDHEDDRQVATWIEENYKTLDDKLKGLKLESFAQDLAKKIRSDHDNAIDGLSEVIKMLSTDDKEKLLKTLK

The IC50 is the concentration that gives 50% inhibition. As usually defined, the MIC is the lowest concentration that inhibits growth of the organism. In the case of `COc1ccc(F)cc1[C@H](Cn1c(=O)n(C2CCN(C)C2=O)c(=O)c2c(C)c(-c3ncco3)sc21)OCCO` (stereo partly drawn) [Compound I-55, 1-((R)-2-(5-fluoro-2-methoxyphenyl)-2-(2-hydroxy-ethoxy)ethyl)-5-methyl-3-(-methyl-2-oxopyrrolidin-3-yl)-6-(oxazol-2-yl)thieno[2,3-d]pyrimidine-2,4(1H,3H)-dione], the IC50 lay in the range of 10 to 100 nM in assay [1] and 0.7 to 2 nM in assay [5]. Moreover, the MIC in assay [2], in assay [3] and in assay [4] was 2.1 to 4 mg/L (≈ 3.76 to 7.16 µM) in each case.

For the compound `COc1ccc(F)cc1[C@H](Cn1c(=O)n([C@@]2(C)CCCNC2=O)c(=O)c2c(C)c(-n3nccn3)sc21)OCCO` [Compound I-127, 1-((R)-2-(5-fluoro-2-methoxyphenyl)-2-(2-hydroxyethoxy)ethyl)-5-methyl-3-((S)-3-methyl-2-oxopiperidin-3-yl)-6-(2H-1,2,3-triazol-2-yl)thieno[2,3-d]pyrimidine-2,4(1H,3H)-dione], the half-inhibitory concentration (IC50) lay within 10 to 100 nM in assay [1] and 0.7 to 2 nM in assay [5]. The minimal inhibitory concentration (MIC) in assay [2], in assay [3] and in assay [4] was 2.1 to 4 mg/L (≈ 3.67 to 6.99 µM) each time.

As to `COc1ccc(F)cc1[C@H](Cn1c(=O)n([C@H]2CCN(C)C2=O)c(=O)c2c(C)c(-n3nccn3)sc21)OC1CCOCC1` [Compound I-35, 1-((R)-2-(5-fluoro-2-methoxyphenyl)-2-((tetrahydro-2H-pyran-4-yl)oxy)ethyl)-5-methyl-3-((S)-1-methyl-2-oxopyrrolidin-3-yl)-6-(2H-1,2,3-triazol-2-yl)thieno[2,3-d]pyrimidine-2,4(1H,3H)-dione], the IC50 in assay [1] lay within 10 to 100 nM; in assay [5] it was 0.7 to 2 nM. Also, the minimal inhibitory concentration (MIC) in assay [2], in assay [3] and in assay [4] was 2.1 to 4 mg/L (≈ 3.51 to 6.68 µM) in each case.

Turning to `COc1ccc(F)cc1[C@H](Cn1c(=O)n([C@@H]2CCN(C)C2=O)c(=O)c2c(C)c(-n3nccn3)sc21)OCCC(=O)O` [Compound I-175, 3-((R)-1-(5-fluoro-2-methoxyphenyl)-2-(5-methyl-3-((R)-1-methyl-2-oxopyrrolidin-3-yl)-2,4-dioxo-6-(2H-1,2,3-triazol-2-yl)-3,4-dihydro-thieno[2,3-d]pyrimidin-1(2H)-yl)ethoxy)propanoic acid], the concentration for half-maximal inhibition (IC50) in assay [1] was in the range of 10 to 100 nM; in assay [5] it was 0.7 to 2 nM. The minimal inhibitory concentration (MIC) in assay [2], in assay [3] and in assay [4] was 2.1 to 4 mg/L (≈ 3.58 to 6.82 µM) in each case.

Take `COc1ccc(F)cc1[C@H](Cn1c(=O)n([C@H]2CCN(C)C2=O)c(=O)c2c(C)c(-n3nccn3)sc21)O[C@H]1CC[C@@H](O)CC1` [Compound I-152, 1-((R)-2-(5-fluoro-2-methoxyphenyl)-2-(((1 s, 4S)-4-hydroxycyclohexyl)oxy)ethyl)-5-methyl-3-((S)-1-methyl-2-oxopyrrolidin-3-yl)-6-(2H-1,2,3-triazol-2-yl)thieno[2,3-d]pyrimidine-2,4(1H,3H)-dione]: the 50% inhibitory concentration (IC50) in assay [1] and in assay [5] was 2 to 10 nM throughout. Besides, the MIC in assay [2], in assay [3] and in assay [4] was 0.25 to 1 mg/L (≈ 0.408 to 1.63 µM) each time.

In the case of `COCCO[C@@H](Cn1c(=O)n([C@@]2(C)CNC(=O)C2)c(=O)c2c(C)c(-n3nccn3)sc21)c1cc(F)ccc1OC` [Compound I-114, 1-((R)-2-(5-fluoro-2-methoxyphenyl)-2-(2-methoxyethoxy)ethyl)-5-methyl-3-((R)-3-methyl-5-oxopyrrolidin-3-yl)-6-(2H-1,2,3-triazol-2-yl)thieno[2,3-d]pyrimidine-2,4(1H,3H)-dione], the IC50 in assay [1] lay within 10 to 100 nM; in assay [5] it was 2 to 10 nM. Moreover, the MIC in assay [2], in assay [3] and in assay [4] was 2.1 to 4 mg/L (≈ 3.67 to 6.99 µM) in each case.

Regarding `CCN1CCCC(n2c(=O)c3c(C)c(-n4nccn4)sc3n(C[C@H](OC3CCOCC3)c3cc(F)ccc3OC)c2=O)C1=O` (stereo partly drawn) [Compound I-23, 3-(1-ethyl-2-oxopiperidin-3-yl)-1-((R)-2-(5-fluoro-2-methoxyphenyl)-2-((tetrahydro-2H-pyran-4-yl)oxy)ethyl)-5-methyl-6-(2H-1,2,3-triazol-2-yl)thieno[2,3-d]pyrimidine-2,4(1H,3H)-dione], the values for the IC50 in assay [1] and in assay [5] were 2 to 10 nM and 0.7 to 2 nM, respectively. In addition, the MIC in assay [2], in assay [3] and in assay [4] was 0.25 to 1 mg/L (≈ 0.399 to 1.6 µM) in each case.

As for `COc1ccc(F)cc1[C@H](Cn1c(=O)n([C@@H]2CCN(C)C2=O)c(=O)c2c(C)c(-n3nccn3)sc21)O[C@H]1CC[C@@H](O)CC1` [Compound I-153, 1-((R)-2-(5-fluoro-2-methoxyphenyl)-2-(((1 s, 4S)-4-hydroxycyclohexyl)oxy)ethyl)-5-methyl-3-((R)-1-methyl-2-oxopyrrolidin-3-yl)-6-(2H-1,2,3-triazol-2-yl)thieno[2,3-d]pyrimidine-2,4(1H,3H)-dione], the IC50 lay in the range of 2 to 10 nM in assay [1] and 0.7 to 2 nM in assay [5]. For the same compound, the minimum inhibitory concentration (MIC) in assay [2] lay within 0.075 to 0.24 mg/L (≈ 0.122 to 0.392 µM); in assay [3] it was 0.25 to 1 mg/L (≈ 0.408 to 1.63 µM); in assay [4], 0.25 to 1 mg/L (≈ 0.408 to 1.63 µM).

Consider `COCCO[C@@H](Cn1c(=O)n([C@]2(C)CCC(=O)N(C)C2)c(=O)c2c(C)c(-n3nccn3)sc21)c1cc(F)ccc1OC` [Compound I-136, 3-((R)-1,3-dimethyl-6-oxopiperidin-3-yl)-1-((R)-2-(5-fluoro-2-methoxyphenyl)-2-(2-methoxyethoxy)ethyl)-5-methyl-6-(2H-1,2,3-triazol-2-yl)thieno[2,3-d]pyrimidine-2,4(1H,3H)-dione], for which the IC50 in assay [1] fell in the range of 10 to 100 nM; in assay [5] it was 0.7 to 2 nM. In addition, the MIC in assay [2], in assay [3] and in assay [4] was 2.1 to 4 mg/L (≈ 3.5 to 6.66 µM) throughout.

In the case of `COCCO[C@@H](Cn1c(=O)n([C@@]2(C)CCCNC2=O)c(=O)c2c(C)c(-n3nccn3)sc21)c1cc(F)ccc1OC` [Compound I-125, 1-((R)-2-(5-fluoro-2-methoxyphenyl)-2-(2-methoxy-ethoxy)ethyl)-5-methyl-3-((S)-3-methyl-2-oxopiperidin-3-yl)-6-(2H-1,2,3-triazol-2-yl)thieno[2,3-d]pyrimidine-2,4(1H,3H)-dione], the values for the IC50 in assay [1] and in assay [5] were 10 to 100 nM and 2 to 10 nM, respectively. The minimal inhibitory concentration (MIC) in assay [2], in assay [3] and in assay [4] was 2.1 to 4 mg/L (≈ 3.58 to 6.82 µM) throughout.

Regarding `COc1ccc(F)cc1[C@H](Cn1c(=O)n(C2CCCN(C)C2=O)c(=O)c2c(C)c(-n3nccn3)sc21)OC1CCOCC1` (stereo partly drawn) [Compound I-22, 1-((R)-2-(5-fluoro-2-methoxyphenyl)-2-((tetrahydro-2H-pyran-4-yl)oxy)ethyl)-5-methyl-3-(1-methyl-2-oxopiperidin-3-yl)-6-(2H-1,2,3-triazol-2-yl)thieno[2,3-d]pyrimidine-2,4(1H,3H)-dione], the IC50 in assay [1] fell in the range of 10 to 100 nM; in assay [5], 0.7 to 2 nM. For the same compound, the minimum inhibitory concentration (MIC) in assay [2], in assay [3] and in assay [4] was 0.25 to 1 mg/L (≈ 0.408 to 1.63 µM) in each case.

As to `COc1ccccc1[C@H](Cn1c(=O)n([C@@H]2CCCNC2=O)c(=O)c2c(C)c(-c3ncco3)sc21)OCCO` [Compound I-61, 1-((R)-2-(2-hydroxyethoxy)-2-(2-methoxyphenyl)ethyl)-5-methyl-6-(oxazol-2-yl)-3-((R)-2-oxopiperidin-3-yl)thieno[2,3-d]pyrimidine-2,4(1H,3H)-dione], the IC50 in assay [1] is 10 to 100 nM; in assay [5], 0.7 to 2 nM. For the same compound, the minimum inhibitory concentration (MIC) in assay [2], in assay [3] and in assay [4] was 2.1 to 4 mg/L (≈ 3.88 to 7.4 µM) each time.

As to `COCCO[C@@H](Cn1c(=O)n([C@@H]2CCN(C(C)C)C2=O)c(=O)c2c(C)c(-n3nccn3)sc21)c1cc(F)ccc1OC` [Compound I-105, 1-((R)-2-(5-fluoro-2-methoxyphenyl)-2-(2-methoxy-ethoxy)ethyl)-3-((R)-1-isopropyl-2-oxopyrrolidin-3-yl)-5-methyl-6-(2H-1,2,3-triazol-2-yl)thieno[2,3-d]pyrimidine-2,4(1H,3H)-dione], the half-inhibitory concentration (IC50) is 10 to 100 nM in assay [1] and 2 to 10 nM in assay [5]. In addition, the MIC in assay [2], in assay [3] and in assay [4] was 2.1 to 4 mg/L (≈ 3.5 to 6.66 µM) in each case.

With `COc1ccc(F)cc1[C@H](Cn1c(=O)n([C@@H]2CCN(C)C2=O)c(=O)c2c(C)c(-n3nccn3)sc21)OCCCO` [Compound I-155, 1-((R)-2-(5-fluoro-2-methoxyphenyl)-2-(3-hydroxypropoxy)ethyl)-5-methyl-3-((R)-1-methyl-2-oxopyrrolidin-3-yl)-6-(2H-1,2,3-triazol-2-yl)thieno[2,3-d]pyrimidine-2,4(1H,3H)-dione], the IC50 in assay [1] was 2 to 10 nM; in assay [5], 0.7 to 2 nM. In addition, the MIC in assay [2], in assay [3] and in assay [4] was 2.1 to 4 mg/L (≈ 3.67 to 6.99 µM) in each case.

As for `COCCO[C@@H](Cn1c(=O)n([C@H]2CNC(=O)C2)c(=O)c2c(C)c(-n3nccn3)sc21)c1cc(F)ccc1OC` [Compound I-88, 1-((R)-2-(5-fluoro-2-methoxyphenyl)-2-(2-methoxy-ethoxy)ethyl)-5-methyl-3-((R)-5-oxopyrrolidin-3-yl)-6-(2H-1,2,3-triazol-2-yl)thieno[2,3-d]pyrimidine-2,4(1H,3H)-dione], the 50% inhibitory concentration (IC50) was 10 to 100 nM in assay [1] and 0.7 to 2 nM in assay [5]. Moreover, the MIC in assay [2], in assay [3] and in assay [4] was 2.1 to 4 mg/L (≈ 3.76 to 7.16 µM) in each case.
